Reference: patent publication EP1980561B1, “Substituted 1h-pyrazolo[3,4-b] pyridine derivatives active as kinase inhibitors” (NERVIANO MEDICAL SCIENCES S.R.L., priority 2007, dated 2008)
Like-named read-outs stand apart in the source and are kept apart here.

Experiments:
AKT2 = target: T1, AKT2 (Homo sapiens, UniProt P31751); assay: Biochemical assay for inhibitors of AKT2 kinase activity (33P trans-phosphorylation, Dowex resin); conditions: 10 nM enzyme, 396 microM ATP, 8.5 microM peptide substrate
T1 construct: GST (N); made in house
T1 sequence (P31751 whole entry, species assumed): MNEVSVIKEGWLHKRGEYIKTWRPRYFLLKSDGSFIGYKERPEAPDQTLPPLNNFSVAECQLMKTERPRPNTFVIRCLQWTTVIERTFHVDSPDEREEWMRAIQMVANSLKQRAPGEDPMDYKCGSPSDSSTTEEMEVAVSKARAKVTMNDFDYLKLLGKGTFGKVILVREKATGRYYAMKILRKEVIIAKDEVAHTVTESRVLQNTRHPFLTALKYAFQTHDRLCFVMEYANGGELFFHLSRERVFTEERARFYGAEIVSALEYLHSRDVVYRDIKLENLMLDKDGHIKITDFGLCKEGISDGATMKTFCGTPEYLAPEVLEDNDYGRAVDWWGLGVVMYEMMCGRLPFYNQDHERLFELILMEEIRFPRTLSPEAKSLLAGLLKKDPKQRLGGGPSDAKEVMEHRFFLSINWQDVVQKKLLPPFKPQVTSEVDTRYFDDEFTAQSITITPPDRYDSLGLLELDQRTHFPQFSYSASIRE
Description: (§1) The N-terminal GST fusion proteins used for the assays were prepared according to the methods described in Kumar, C. C. Biochem. Biophys. ACTA 2001, 1526, 257-268, and in Alessi, D. R.. Biochem. J. 1998 331, 299-308.
The in vitro kinase inhibition assay was conducted in the same way as described for AKT1. The kinase assay was run with a final enzyme concentration of 10 nM, in the presence of 396 microM ATP, 0.88 nM ^33P-γ-ATP and 8.5 microM substrate, a carboxy-terminally biotinylated peptide of the following sequence:
ARKRERTYSFGHHA-biotin. The peptide was obtained in batches of >95% peptide purity from PRIMM labs Inc. (Boston MA, USA).

AKT3 = AKT3 (Homo sapiens, UniProt Q9Y243); assay: Biochemical assay for inhibitors of AKT3 kinase activity (33P trans-phosphorylation, Dowex resin)
AKT3, sequence (Q9Y243 2-479): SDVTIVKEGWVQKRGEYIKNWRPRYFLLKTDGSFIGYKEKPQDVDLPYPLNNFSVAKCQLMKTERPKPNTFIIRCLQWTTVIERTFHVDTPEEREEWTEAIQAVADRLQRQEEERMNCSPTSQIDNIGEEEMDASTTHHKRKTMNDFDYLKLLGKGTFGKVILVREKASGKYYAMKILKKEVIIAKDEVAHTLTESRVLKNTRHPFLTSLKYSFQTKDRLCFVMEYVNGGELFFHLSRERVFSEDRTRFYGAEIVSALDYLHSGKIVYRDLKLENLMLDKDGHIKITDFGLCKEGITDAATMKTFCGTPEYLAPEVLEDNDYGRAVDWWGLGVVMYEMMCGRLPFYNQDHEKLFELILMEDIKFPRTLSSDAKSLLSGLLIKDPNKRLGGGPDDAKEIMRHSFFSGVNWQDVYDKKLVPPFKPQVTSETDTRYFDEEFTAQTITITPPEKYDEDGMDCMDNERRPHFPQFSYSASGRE
Description: The N-terminal GST fusion proteins used for the assays were prepared according to the methods described in Kumar, C. C. Biochem. Biophys. ACTA 2001, 1526, 257-268, and in Alessi, D. R.. Biochem. J. 1998 331, 299-308. The in vitro kinase inhibition assay was conducted in the same way as described for AKT1. The kinase assay was run with a final enzyme concentration of 1 nM, in the presence of 180 microM ATP, 0.88 nM ^33P-γ-ATP and 28.5 microM substrate, a carboxy-terminally biotinylated peptide of the following sequence: ARKRERTYSFGHHA-biotin. The peptide was obtained in batches of >95% peptide purity from PRIMM labs Inc. (Boston MA, USA).

PKAα = target: T2, PKAα (Homo sapiens, UniProt P17612); assay: FABS-NMR screening (3-FABS, 19F-labelled AKTide-like substrate) on PKA; type: biochemical; conditions: 25 nM protein, 30 µM substrate, 150 µM ATP
T2 construct: polyHis; made in house; host or cells: E. coli
Description: (§2) The biochemical functional NMR screening on the proteins kinase AKT-1 and PKA was performed using the 3-FABS (3-Fluorine Atoms for Biochemical Screening) technique developed by C. Dalvit and the NMR group in house (C. Dalvit et al 2003 J. Am. Chem. Soc. 125 (47): 14620).
(§3) The method require the use of a ^19F-labelled substrate. The same commercial peptide was used as substrate in both enzymatic reaction: the Tyr just before the phosphorilation site in the AKTide peptide was mutated in a 3-tryfluormethyl-Phe by Bachem.
(§4) The AKTide like peptide sequence is reported below: • H-Ala-Arg-Lys-Arg-Glu-Arg-Ala-Phe(3-CF3)-Ser-Phe-Gly-His-His-Ala-OH
The active cycled AMP-dependent human protein kinase A PKA was expressed as polyHis-tag protein in E.Coli and purified by affinity column.
(§5) Reactions were performed in an end point format in eppendorf of 0.5 ml using the buffer solution 50mM Tris, pH 7.5, 5mM MgCl2, 1mM DTT, 8% D2O and 0.001% Triton-X-100; the final volume was of 560 µl. […] The spectra were recorded using the Varian Inova 600 MHz NMR spectrometer operating at a ^19F Larmor frequency of 564 MHz and using a 5mm probe with the inner coil tuned to ^19F and the outer coil tuned to H. The data were recorded without proton decoupling with a spectral width of 12000 Hz, an acquisition time of 0.8s and a relaxation delay of 2.8s. […]

[1] = tested on: S6 ribosomal protein phosphorylation (Ser235/236) in MCF-7 cells; assay: Inhibition of AKT induced S6 ribosomal protein phosphorylation in MCF7 (immunofluorescence, ArrayScan); type: cell-based; conditions: Homo sapiens, compound treatment for 4 hour at 37°C, read-out: S6 phosphorylation (Ser235/236) in MCF7-cell IC50
Description: MCF-7 cells (ATCC# HTB-22) were seeded in 96-well poly-lysine coated clear- and flat-bottomed black plates (Matrix Technologies Inc., Hudson, NH, USA), in E-MEM medium (MEM+ Earle's BSS + 2 mM glutamine + 0.1 mM non-essential amino acids) containing 10% of FCS at a density of 7000 cells/well, and incubated overnight at 37°C, 5% CO2, 100% relative humidity. After this incubation, cells were treated with increasing compound doses for 4 hour at 37°C. Afterwards, cells were fixed with PBS/3.7% paraformaldehyde for 15 min at room temperature, wash twice with 200 µl/well D-PBS and permeabilize with a D-PBS solution containing 0.1% Triton X-100 (Sigma-Aldrich, St. Louis, MO, USA) and 0.1% powder Milk for 15 minutes (staining solution). […] Fluorescence images in the DAPI and Cy5™ channels were automatically acquired, stored and analysed using a Cellomics ArrayScan™ IV instrument (Cellomics, Pittsburgh, USA); the Cellomics Cytotoxicity Algorithm was used to quantify cytoplasmic fluorescence associated with phospho-S6 (Cy5™ signal parameter: "Mean Lyso Mass-pH") for each cell in 10 fields/well, and eventually expressed as a mean population value. […]

AKT1 [2] = target: T3, AKT1 (Homo sapiens, UniProt P31749); assay: Biochemical assay for inhibitors of AKT1 kinase activity (33P trans-phosphorylation, Dowex resin); set-up: GST (N); made in house; conditions: 5 nM enzyme, 132 microM ATP, 30 microM peptide substrate, 60 minutes at room temperature
T3 sequence (P31749 whole entry): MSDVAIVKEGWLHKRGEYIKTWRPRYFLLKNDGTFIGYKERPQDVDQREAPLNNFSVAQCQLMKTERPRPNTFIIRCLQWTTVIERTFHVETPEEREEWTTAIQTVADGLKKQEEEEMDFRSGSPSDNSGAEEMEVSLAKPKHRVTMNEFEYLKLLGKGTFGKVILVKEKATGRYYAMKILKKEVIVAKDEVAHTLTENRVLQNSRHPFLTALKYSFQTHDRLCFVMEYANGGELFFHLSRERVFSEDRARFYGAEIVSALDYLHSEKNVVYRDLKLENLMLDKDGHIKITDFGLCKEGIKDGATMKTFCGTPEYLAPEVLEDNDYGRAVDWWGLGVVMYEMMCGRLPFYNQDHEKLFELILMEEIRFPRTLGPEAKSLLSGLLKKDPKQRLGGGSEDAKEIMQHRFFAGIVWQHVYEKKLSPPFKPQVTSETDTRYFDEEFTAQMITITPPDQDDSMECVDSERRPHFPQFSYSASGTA
Description: as §1
The inhibitory activity of putative kinase inhibitors and the potency of selected compounds were determined using a trans-phosphorylation assay.
A specific substrate was incubated with the kinase in appropriate buffer conditions in the presence of ATP traced with ^33P-γ-ATP (gamma phosphate-labeled, Redivue™
Code Number AH9968, 1000-3000Ci/mmole, Amersham Biosciences Piscataway, NJ, USA), optimal cofactors and test compound.
At the end of the phosphorylation reaction, more than 98% cold and radioactive ATP were captured by an excess of Dowex ion exchange resin. The resin was allowed to settle to the bottom of reaction wells by gravity. Supernatant, containing substrate peptide, was subsequently withdrawn and transferred into a counting plate, and radioactivity (corresponding to phosphate incorporated into peptide) was evaluated by β-counting.
Kinase buffer was composed of 50 mM TRIS pH 7.5 containing10 mM MgCl2, 1 mM DTT, 3 microM Na3VO4, and 0.2 mg/mL BSA. 3X KB is buffer of the same composition and pH as KB, but with three times the concentration of each component. […]

AKT1 [3] = target: T3, AKT1; assay: FABS-NMR screening (3-FABS, 19F-labelled AKTide-like substrate) on AKT-1; type: biochemical; set-up: The active human Ser-Thr protein kinase AKT-1 Full Length was expressed as GST fusion protein; GST (cleaved yes); made in house; host or cells: insect cells; conditions: 25 nM protein, 30 µM substrate, 1.5 mM ATP; read-out: AKT1 IC50 FABS NMR assay
Description: as §2, §3, §4
The active human Ser-Thr protein kinase AKT-1 Full Length was expressed as GST fusion protein in insect cells and then the GST was cleaved with PreScission protease.
as §5

Compound `NC[C@H](Cc1ccccc1)NC(=O)/C=C/c1n[nH]c2ncccc12` [Compound 1, (E)-N-((S)-2-amino-1benzyl-ethyl)-3-(1H-pyrazolo[3,4-b]pyridin-3-yl)acrylamide tris(trifluoroacetate)] has an IC50 (AKT2) of 92 nM, an IC50 (AKT3) of 19 nM and an IC50 (PKAα) of 25 nM. The IC50 [1] was 1350 nM, the IC50 (AKT1 [2]) was 17 nM and the IC50 (AKT1 [3]) was 62 nM.

`CN1CCN(C[C@@H](NC(=O)/C(=C/c2n[nH]c3ncccc23)c2cn(C)c3ccc(Br)cc23)c2ccccc2)CC1` [Compound 10, (2E)-2-(5-bromo-1-methyl-1H-indol-3-yl)-N-[(1S)-2-(4-methylpiperazin-1-yl)-1-phenylethyl]-3-(1H-pyrazolo[3,4-b]pyridin-3-yl)acrylamide] gave an IC50 (AKT2) of 786 nM, an IC50 (AKT3; 1 nM enzyme, 180 microM ATP, 28.5 microM peptide substrate, read-out: AKT3 IC50 Biochemical assay) of 108 nM and an IC50 (PKAα) of 1900 nM. For the same compound, the IC50 [1] was 16000 nM, the IC50 (AKT1 [2]) was 149 nM and the IC50 (AKT1 [3]) was 62 nM.
